Consider 14 molecules from PubChem BioAssay (NCI).

Test systems include ACHN renal; CAKI-1 renal; COLO 205 colon; HCC-2998 colon; KM12 colon; MOLT-4 leukemia; NCI/ADR-RES ovarian; SF-539 CNS; SNB-75 CNS; UO-31 renal.
Assay in all cases: inhibition of tumour cell growth, NCI panel, 48 h

Molecules are shown by their SMILES.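 Following 48 hours of exposure in 96-well plates, responses at five concentrations were used to interpolate endpoints linearly. The concentration for 50% growth inhibition is given as GI50. TGI is the concentration that stops growth completely.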 Some results are limits rather than exact numbers.

With `N#Cc1c(-c2ccc(Cl)cc2)c2c([nH]c1=O)-c1cc([N+](=O)[O-])ccc1CCC2`, the TGI with ACHN renal was over 100 µM; in the experiment with CAKI-1 renal it was 52.6 µM; with COLO 205 colon, 49.7 µM; in the experiment on HCC-2998 colon, 35.7 µM; with KM12 colon it was 55.5 µM; in the experiment with MOLT-4 leukemia, over 100 µM. The TGI in the experiment with NCI/ADR-RES ovarian stood at 55.4 µM; in the experiment with SF-539 CNS, 35 µM; in the experiment on SNB-75 CNS, 78.3 µM; in the experiment with UO-31 renal, 32.5 µM.
As to `COP(=O)(OC)[C@H](O)[C@H]1C[C@@H]1c1ccccc1`, the TGI in the experiment with ACHN renal, with CAKI-1 renal, with COLO 205 colon, with HCC-2998 colon, in the experiment on KM12 colon and with MOLT-4 leukemia was over 100 µM throughout. Also, the TGI in the experiment with NCI/ADR-RES ovarian, in the experiment on SNB-75 CNS and in the experiment on UO-31 renal was over 100 µM throughout.
With `Cc1ccc(C(=O)Nc2ncn(C3CC(O)C(CO)O3)c(=O)n2)cc1` (stereo not given), the TGI in the experiment on CAKI-1 renal is over 100 µM; in the experiment with COLO 205 colon it was over 100 µM; in the experiment on HCC-2998 colon, over 100 µM; in the experiment with KM12 colon it was over 100 µM; in the experiment with MOLT-4 leukemia, 97.3 µM; in the experiment on NCI/ADR-RES ovarian, over 100 µM. Besides, the TGI with SF-539 CNS, with SNB-75 CNS and in the experiment with UO-31 renal was over 100 µM throughout.
For the molecule `C/C(=C\C(=N\NC(=N)N)c1ccccc1)c1ccccc1`, the TGI in the experiment with ACHN renal is 1.17 µM; in the experiment on CAKI-1 renal, 1.59 µM; in the experiment with COLO 205 colon, 0.284 µM; in the experiment with HCC-2998 colon, 1.86 µM; in the experiment with KM12 colon it was 3.67 µM; in the experiment on MOLT-4 leukemia, 2.04 µM. For the same molecule, the TGI came out at 10.1 µM with NCI/ADR-RES ovarian, 1.85 µM in the experiment on SF-539 CNS and 17.3 µM in the experiment with SNB-75 CNS.
As for `CCN(CCO)CCNc1ccc(C)c2sc3ccccc3c(=O)c12`, the TGI stood at 15 µM in the experiment with ACHN renal; 12.6 µM in the experiment with CAKI-1 renal; 3.12 µM in the experiment on COLO 205 colon; 5.2 µM with HCC-2998 colon; 11.2 µM in the experiment on KM12 colon; 18.8 µM in the experiment on MOLT-4 leukemia. Further, the TGI with NCI/ADR-RES ovarian was found to be 11.7 µM; in the experiment on SF-539 CNS, 10.3 µM; in the experiment on SNB-75 CNS it was 12 µM; in the experiment with UO-31 renal it was 15 µM.
For `O=c1[nH]c(=O)n(CCOCP(=O)(O)O)nc1Br`, the TGI in the experiment with ACHN renal, in the experiment with CAKI-1 renal, in the experiment with COLO 205 colon, in the experiment on HCC-2998 colon, in the experiment on KM12 colon and with MOLT-4 leukemia was over 100 µM throughout. The TGI in the experiment with NCI/ADR-RES ovarian, with SF-539 CNS, in the experiment with SNB-75 CNS and in the experiment with UO-31 renal was over 100 µM each time.
Turning to `COc1ccc2c(c1)CCCc1c-2nc2ccccc2c1N`, the TGI in the experiment on ACHN renal came to 29 µM; in the experiment on CAKI-1 renal it was 26.8 µM; with COLO 205 colon, 3.22 µM; in the experiment with HCC-2998 colon, 3.34 µM; with KM12 colon, 30.9 µM; in the experiment on MOLT-4 leukemia it was 66.5 µM. For the same molecule, the TGI with NCI/ADR-RES ovarian is 33.6 µM; with SF-539 CNS, 24.8 µM; in the experiment with SNB-75 CNS, 22.6 µM; with UO-31 renal, 18.5 µM.
`COc1ccc(N=Cc2ccc(N(CCC#N)S(=O)(=O)c3ccccc3)cc2C)cc1`: the TGI in the experiment on ACHN renal is over 100 µM; in the experiment with CAKI-1 renal it was over 100 µM; in the experiment with COLO 205 colon it was 96.3 µM; in the experiment with HCC-2998 colon, over 100 µM; in the experiment on MOLT-4 leukemia, over 100 µM; with SF-539 CNS, over 100 µM. Besides, the TGI in the experiment on SNB-75 CNS and in the experiment on UO-31 renal was over 100 µM throughout.
With `CN1NC(c2ccccc2)=C(C#N)C(=O)CC1c1ccc(F)cc1` (stereo not given), the TGI with ACHN renal, with CAKI-1 renal, in the experiment with COLO 205 colon, in the experiment on HCC-2998 colon, with KM12 colon and with MOLT-4 leukemia was over 100 µM throughout. This molecule registered a TGI in the experiment on SNB-75 CNS of over 100 µM.
In the case of `CCCCCCCCCCCCSC(=S)c1c(C)[nH]n(CCCCCCCCCCCC)c1=O`, the TGI with ACHN renal, in the experiment on CAKI-1 renal, in the experiment on COLO 205 colon, in the experiment with HCC-2998 colon, with KM12 colon and in the experiment with MOLT-4 leukemia was over 100 µM in each case. The TGI in the experiment with SF-539 CNS, in the experiment with SNB-75 CNS and in the experiment with UO-31 renal was over 100 µM throughout.
On to `Cc1cc(=O)n2c3c(c4c(cc13)c(CN(C)C)cc(=O)n4C)OC2`, for which the TGI is 39.1 µM in the experiment on ACHN renal; 97 µM with CAKI-1 renal; 35.1 µM in the experiment with COLO 205 colon; 35.9 µM with HCC-2998 colon; 67.7 µM with KM12 colon; over 100 µM in the experiment on MOLT-4 leukemia. For the same molecule, the TGI is over 76.9 µM in the experiment on NCI/ADR-RES ovarian, 24.2 µM with SF-539 CNS, 58.6 µM with SNB-75 CNS and over 89.8 µM with UO-31 renal.
For `O=C(NC(Cc1ccc(Cl)cc1)C(=O)O)c1ccc(I)cc1` (stereo not given), the TGI with CAKI-1 renal, in the experiment with COLO 205 colon, with KM12 colon, with MOLT-4 leukemia, in the experiment with NCI/ADR-RES ovarian and in the experiment with SF-539 CNS was over 100 µM in each case. Further, the TGI in the experiment with SNB-75 CNS and in the experiment on UO-31 renal was over 100 µM in each case.
In the case of `C=C1CC2C3C=C(C)C4=CC(=O)CC[C@]4(C)C3CC[C@]2(C)[C@@]1(OC(C)=O)C(C)=O` (stereo not given in full), the GI50 in the experiment on CAKI-1 renal was 2.96 µM; in the experiment on NCI/ADR-RES ovarian, 2.43 µM; in the experiment with SNB-75 CNS, 8.76 µM. Further, the TGI with CAKI-1 renal, in the experiment on NCI/ADR-RES ovarian and in the experiment with SNB-75 CNS was over 100 µM in each case.
In the case of `Cc1cn(Cc2cn(CC3OC(n4cc(C)c(=O)[nH]c4=O)CC3O)nn2)c(=O)[nH]c1=O` (stereo not given), the TGI in the experiment on ACHN renal, in the experiment on CAKI-1 renal, with COLO 205 colon, in the experiment on HCC-2998 colon, in the experiment on KM12 colon and in the experiment on MOLT-4 leukemia was over 100 µM in each case. The TGI in the experiment with NCI/ADR-RES ovarian, with SF-539 CNS, in the experiment on SNB-75 CNS and in the experiment on UO-31 renal was over 100 µM throughout.
